How the values were obtained:
[1] = system: all the tested G4s structures; parameters: method as in PMID 21528379; conditions: cited from earlier work
[2] = system: A2780cis cisplatin-resistant ovarian cancer cell line; assay: Cell growth (proliferation), 96 h treatment; format: cell-based, human; conditions: 96 h treatment
Protocol: (§1) The ovarian carcinoma cell lines and human normal lung cells were purchased from ATCC and were grown in complete RPMI medium (ovarian) and DMEM (human lung cells) supplemented with 10% fetal calf serum, in the presence of penicillin, streptomycin. The resistance of A2780cis cells to cisplatin was maintained by monthly treatment with 1 µM cisplatin for 4 days. Concentrated stock solutions of complexes were conserved at −20 °C (DMSO/Water) and freshly diluted in water just before the experiments. Cells were treated with various concentrations of platinum complexes at 37 °C under humidity and 5% CO2 conditions for 96 h. Cellular growth was quantified using the particle counter MOXI (VWR).

[3] = system: A2780 ovarian cancer cell line; assay: Cell growth (proliferation), 96 h treatment; format: cell-based, human; conditions: A2780, 96 h treatment
Protocol: as §1

[4] = system: CCD19Lu normal lung cell line; assay: Cell growth (proliferation), 96 h treatment; format: cell-based, human
Protocol: as §1

[5] = system: F-21-T (DNA, G4) GGGTTAGGGTTAGGGTTAGGG; assay: FRET-melting; conditions: 10 mM KCl, 90 mM LiCl; 10 mM lithium cacodylate pH 7.3; 1 µM compound, 0.2 µM DNA
[6] = system: F-myc-T (DNA, G4) TGAGGGTGGGTAGGGTGGGTAA; assay: FRET-melting; conditions: 1 mM KCl, 99 mM LiCl; 10 mM lithium cacodylate pH 7.3; 1 µM compound, 0.2 µM DNA
[7] = system: F-21CTA-T (DNA, G4) AGGGCTAGGGCTAGGGCTAGGG; assay: FRET-melting; conditions: 1 mM KCl, 99 mM LiCl; 10 mM lithium cacodylate pH 7.3; 1 µM compound, 0.2 µM DNA
[8] = system: F-CEB25-WT-T (DNA, G4) AGGGTGGGTGTAAGTGTGGGTGGGT; assay: FRET-melting; conditions: 1 mM KCl, 99 mM LiCl; 10 mM lithium cacodylate pH 7.3; 1 µM compound, 0.2 µM DNA
c-myc G4 [9] = assay: TO G4-FID assay; format: binding; conditions: TO 2 eq, K+100 buffer
Protocol: (§2) For the G4-FID assay, the oligonucleotides were dissolved in K^+100 buffer (10 mM lithium cacodylate buffer pH 7.3, 100 mM KCl, 1% DMSO). Oligonucleotide concentrations were determined on the basis of their absorbance at 260 nm. For the fluorimetric titration, the oligonucleotides were dissolved in K^+100 buffer without DMSO. For the FRET-melting assay, the oligonucleotides were dissolved in K^+1 buffer (10 mM lithium cacodylate buffer pH 7.3, 1 mM KCl, 99 mM LiCl) except for F-21-T. F-21-T was dissolved in K^+10 buffer (10 mM lithium cacodylate buffer pH 7.3, 10 mM KCl, 90 mM LiCl).
(§3) Prior to use, all oligonucleotides were pretreated by heating at 95 °C for 5 min, then rapidly cooled to 4 °C to favor the intramolecular folding by kinetic trapping. Duplex-DNA ds26 was prepared by heating the self-complementary strand at 90 °C for 5 min in K^+1 buffer followed by a slow cooling over 6 h.
(§4) Each G4-FID assay was performed in a 96-well Non-Binding Surface black with black bottom polystyrene microplates (Corning). Every ligand was tested on a line of the microplate, in duplicate. The microplate was filled with (a) K^+100 solution (qs for 200 μL), (b) 10 μL of a solution of pre-folded oligonucleotides (5 μM) and fluorescent probe (TO/TO-PRO-3 (10 μM—2 eq) or PhenDV (7,5 µM—1.5 eq)), and (c) an extemporaneously prepared 5 μM ligand solution in K^+100 buffer (0 to 100 μL) along the line of the microplate, i.e., from column A to column H: 0, 0.125, 0.25, 0.375, 0.5, 0.625, 0.75, 1.0, 1.25, 1.5, 2.0, and 2.5 μM. After 5 min of orbital shaking at 500 rpm, fluorescence is measured using the following experimental parameters: positioning delay of 0.5 s, 20 flashes per well, emission/excitation filters for TO at 485/520, TO-PRO-3 at 620/670, and PhenDV at 355/520 gain adjusted at 80% of the fluorescence from the most fluorescent well (i.e., a well from column A for TO and a well from column H).
(§5) The percentage of TO displacement is calculated from the fluorescence intensity (F), using (1) % TO displacement=1−F/F0 where F0 is the fluorescence from the fluorescent probe bound to DNA without added ligand.
(§6) The PhenDV displacement is calculated from the fluorescence intensity F; F(ligand+probe), which refers to the fluorescence of the probe in presence of the ligand (without G4); and F0, which is the fluorescence without added ligand. The term F(ligand+probe) is necessary as the ligand can quench the fluorescence of the probe. The percentage of displacement is then plotted as a function of the concentration of the added ligand. The DNA affinity was evaluated by the concentration of ligand required to decrease the fluorescence of the probe by 50%, was noted DC50, and was determined after non-linear fitting of the displacement curve.

[10] = system: CEB25-WT minisatellite sequence G4; assay: TO G4-FID assay; format: binding; conditions: TO 2 eq, K+100 buffer
Protocol: as §2, §3, §4, §5, §6

[11] = system: 22AG human telomeric sequence G4; assay: TO G4-FID assay; format: binding; conditions: TO 2 eq, K+100 buffer
Protocol: as §2, §3, §4, §5, §6

c-myc G4 [12] = assay: PhenDV G4-FID assay; format: binding; conditions: PhenDV 1.5 eq, K+100 buffer
Protocol: as §2, §3, §4
(§7) In the case of PhenDV, the fluorescence of the unbound probe is not negligible. The percentage of displacement becomes (2) % PhenDV Displacement=F−F0/Fligand+probe−F0
as §6

[13] = system: CEB25-WT minisatellite sequence G4; assay: PhenDV G4-FID assay; format: binding; conditions: PhenDV 1.5 eq, K+100 buffer
Protocol: as §2, §3, §4, §7, §6

[14] = system: 22AG human telomeric sequence G4; assay: PhenDV G4-FID assay; format: binding; conditions: PhenDV 1.5 eq, K+100 buffer
Protocol: as §2, §3, §4, §7, §6

c-myc G4 [15] = assay: TO-PRO-3 G4-FID assay; format: binding; conditions: TO-PRO-3 2 eq, K+100 buffer
Protocol: as §2, §3, §4, §5, §6

[16] = system: CEB25-WT minisatellite sequence G4; assay: TO-PRO-3 G4-FID assay; format: binding; conditions: TO-PRO-3 2 eq, K+100 buffer
Protocol: as §2, §3, §4, §5, §6

[17] = system: 22AG human telomeric sequence G4; assay: TO-PRO-3 G4-FID assay; format: binding; conditions: TO-PRO-3 2 eq, K+100 buffer
Protocol: as §2, §3, §4, §5, §6

[18] = system: c-myc (myc22) (DNA, G4) TGAGGGTGGGTAGGGTGGGTAA; assay: G4-FID, PhenDV displacement; conditions: 100 mM KCl; 10 mM lithium cacodylate pH 7.3, 1% DMSO; PhenDV displaced; 1 µM compound
[19] = system: 21CTA human telomeric sequence variant G4; format: binding; conditions: K+100 buffer
Protocol: as §2, §3, §4, §5, §6

[20] = system: 21CTA human telomeric sequence variant G4; format: binding; conditions: PhenDV 1.5 eq, K+100 buffer
Protocol: as §2, §3, §4, §7, §6

Q: With `CN1/C(=C/C=C/c2cc[n+](CCC[N+](C)(C)C)c3ccccc23)Sc2ccccc21.[I-].[I-]` [TO-PRO-3] as the compound, how does the “affinity constants towards all the tested G4s structures (Ka)” value [1] read?
A: ~ 10^6 M^−1

Q: What does the source list for `N.N.[Cl][Pt][Cl]` [cisplatin, reference compound]?
A: Resistance Factor (IC50ratio A2780cis/A2780) [2]: 9.1; IC50 ([2]; A2780cis): 3 µM; IC50 [3]: 0.33 µM; IC50 [4]: 0.2 µM

Q: With `[C-]#Cc1ccccc1.[Pt+2].c1ccc(-c2cccc(-c3ccccn3)n2)nc1` as the compound, how does the binding [5] read?
A: no

Q: And the binding [6]?
A: no

Q: What about the binding [7] of the same compound?
A: no

Q: What about the binding [8] of the same compound?
A: no

Q: Which “% of TO displacement at 1 µM of ligand” value (c-myc G4 [9]) does the source give for `C[n+]1cc(NC(=O)c2ccc3ccc4ccc(C(=O)Nc5cc6ccccc6[n+](C)c5)nc4c3n2)cc2ccccc21` [PhenDC3, reference compound] here?
A: 96%

Q: What about the “% of TO displacement at 1 µM of ligand” value [10] of the same compound?
A: 90%

Q: And the “% of TO displacement at 1 µM of ligand” value [11]?
A: 95%

Q: What about the “% of PhenDV displacement at 1 µM of ligand” value (from here on “% of PhenDV displacement”) (c-myc G4 [12]) of the same compound?
A: 85%

Q: What about the “% of PhenDV displacement” value [13] of the same compound?
A: 99%

Q: And the “% of PhenDV displacement” value [14]?
A: 92%

Q: And the “% of TOPRO3 displacement at 1 µM of ligand” value (from here on “% of TOPRO3 displacement”) (c-myc G4 [15])?
A: 73%

Q: What about the “% of TOPRO3 displacement” value [16] of the same compound?
A: 88%

Q: What about the “% of TOPRO3 displacement” value [17] of the same compound?
A: 85%

Q: What about the binding [18] of the same compound?
A: yes

Q: What about the “% of TO displacement at 1 µM of ligand” value ([19]; TO 2 eq) of the same compound?
A: 95%

Q: And the “% of TOPRO3 displacement” value ([19]; TO-PRO-3 2 eq)?
A: 83%

Q: And the “% of PhenDV displacement” value [20]?
A: 100%

— paper PMC6385020 (Molecules, 2019)
